Test results reported in US9545445B2, “Therapeutic drug for hypertension or prehypertension” (Teijin Pharma Limited, priority 2009, dated 2017).

Test system: SHRs (Spontaneously Hypertensive Rats)
Assay: Systolic blood pressure of spontaneously hypertensive rats by Tail-Cuff method after administration in drinking water
Format: in vivo, rat
Source text: In this case, losartan (an angiotensin-receptor antagonist), enalapril (an angiotensin-converting enzyme inhibitor), amlodipine (a calcium channel blocker), and diltiazem (a calcium channel blocker) were used as representative examples of the antihypertensive agent (b). Twelve-week-old male SHRs (Spontaneously Hypertensive Rats) were used for experiment after subjecting them to quarantine for 1 week or more. At 15 or 16 weeks old, the SHRs were trained for blood pressure measurement with a Tail-Cuff method sphygmomanometer (BP-2000, Visitech systems, Napa Place, N.C., USA) for 1 to 2 weeks. After completing the training, they underwent blood pressure measurement at 17 to 18 weeks old. The animals were divided into 4 groups (10 for each) by taking care not to cause a bias in the systolic blood pressure, and the drug administration was started. Tap water was administered to a first group as a control group. A solution of each test material dissolved in tap water was administered to second to fourth groups. That is, febuxostat was administered to the second group, each antihypertensive agent of losartan, enalapril, amlodipine or diltiazem to the third group, and the mixture of febuxostat and the antihypertensive agents administered to the third group as combined administration to the fourth group. The dose of each agent was calculated from the concentration in the solution, the amount of drinking water, and the weight of the rats. After administration was carried out for 2 to 6 weeks, the value of their systolic blood pressure were measured by Tail-Cuff method.

[1] = male SHR, before administration (baseline of the group), Table 3 study, each agent 3 mg/kg/day
[2] = male SHR, 42nd day after administration, each agent 3 mg/kg/day in tap water, alone or combined, Table 2 study (tap water group 226 ± 4)
[3] = male SHR, before administration (baseline of the group), Table 2 study, each agent 3 mg/kg/day
[4] = male SHR, 14th day after administration, each agent 3 mg/kg/day in tap water, alone or combined, Table 1 study (tap water group 233 ± 4)
[5] = male SHR, before administration (baseline of the group), Table 1 study, each agent 3 mg/kg/day

| SMILES | systolic blood pressure (mean value±standard error) [1] | systolic blood pressure (mean value±standard error) [2] | systolic blood pressure (mean value±standard error) [3] | systolic blood pressure (mean value±standard error) [4] | systolic blood pressure (mean value±standard error) [5] | other results |
| --- | --- | --- | --- | --- | --- | --- |
| CCOC(=O)C1=C(COCCN)NC(C)=C(C(=O)OC)C1c1ccccc1Cl (centres unmarked) [amlodipine] | 228 ± 3 mmHg | – | – | – | – | systolic blood pressure (mean value±standard error) (rat, in vivo): 219 ± 3 mmHg |
| COc1ccc([C@@H]2Sc3ccccc3N(CCN(C)C)C(=O)[C@@H]2OC(C)=O)cc1 [diltiazem] | – | – | – | – | – | systolic blood pressure (mean value±standard error) (male SHR, 42nd day after administration, diltiazem 100 mg/kg/day in tap water, Table 4 study (tap water group 233 ± 3)): 231 ± 4 mmHg; systolic blood pressure (mean value±standard error) (male SHR, before administration (baseline of the group), Table 4 study, diltiazem 100 mg/kg/day): 229 ± 4 mmHg |
| CCOC(=O)[C@H](CCc1ccccc1)N[C@@H](C)C(=O)N1CCC[C@H]1C(=O)O [enalapril] | – | 220 ± 5 mmHg | 232 ± 5 mmHg | – | – | – |
| Cc1nc(-c2ccc(OCC(C)C)c(C#N)c2)sc1C(=O)O [febuxostat, 2-(3-cyano-4-isobutyloxyphenyl)-4-methyl-5-thiazolecarboxylic acid] | 228 ± 4 mmHg | 213 ± 5 mmHg | 230 ± 3 mmHg | 219 ± 4 mmHg | 230 ± 4 mmHg | systolic blood pressure (mean value±standard error) (male SHR, 14th day after administration, each agent 3 mg/kg/day in tap water, alone or combined, Table 3 study (tap water group 229 ± 3)): 215 ± 4 mmHg; systolic blood pressure (mean value±standard error) (male SHR, 42nd day after administration, febuxostat 3 mg/kg/day in tap water, Table 4 study (tap water group 233 ± 3)): 227 ± 4 mmHg; antihypertensive action (result in words) (male SHR, administration for 2 to 6 weeks in drinking water): antihypertensive action; systolic blood pressure (mean value±standard error) (male SHR, before administration (baseline of the group), Table 4 study, febuxostat 3 mg/kg/day): 230 ± 5 mmHg |
| CCCCc1nc(Cl)c(CO)n1Cc1ccc(-c2ccccc2-c2nn[nH]n2)cc1 [losartan] | – | – | – | 215 ± 2 mmHg | 232 ± 4 mmHg | – |
